Legend:
Assay type in all cases: biochemical
[1] = biological target: T1, μ-opioid receptor (Homo sapiens (Human), UniProt P35372); test: μ-opioid receptor [35S]GTPγS functional assay, HEK-293 or CHO cells (Table 4); settings: for Emax: relative to DAMGO; for EC50: μ GTP
Experimental: (§1) μ-Opioid Receptor Functional Assay Procedures: [^35S]GTPγS functional assays were conducted using freshly thawed μ-receptor membranes prepared in-house from a cell line expressing recombinant μ opioid receptor in a HEK-293, CHO or U-2 OS cell background, or purchased from a commercial source (Perkin Elmer, Shelton, Conn.; or DiscovRx, Fremont, Calif.). Assay reactions were prepared by sequentially adding the following reagents to binding buffer (100 mM NaCl, 10 mM MgCl2, 20 mM HEPES, pH 7.4) on ice (final concentrations indicated): membrane protein (0.026 mg/mL), saponin ([…]), GDP ([…]) and [^35S]GTPγS (0.20 nM; Perkin Elmer, Shelton, Conn.). The prepared membrane solution (190 μl/well) was transferred to 96-shallow well polypropylene plates containing 10 μl of 20× concentrated stock solutions of the agonist [D-Ala^2, N-methyl-Phe^4 Gly-ol^5]-enkephalin (DAMGO) prepared in dimethyl sulfoxide (DMSO). Plates were incubated for 30 min at about 25° C. with shaking Reactions were terminated by rapid filtration onto 96-well Unifilter GF/B filter plates (Perkin Elmer, Shelton, Conn.) using a 96-well tissue harvester (Perkin Elmer, Shelton, Conn.) followed by three filtration washes with 200 μl of ice-cold wash buffer (10 mM NaH2PO4, 10 mM Na2HPO4, pH 7.4). Filter plates were subsequently dried at 50° C. for 2-3 hours. BetaScint scintillation cocktail (Perkin Elmer, Shelton, Conn.) was added (50 μl/well) and plates were counted using a Packard Top-Count for 1 min/well. Data were analyzed using the sigmoidal dose-response curve fitting functions in GraphPad PRISM v. 3.0, or an in-house function for non-linear, sigmoidal dose-response curve-fitting. [^35S]GTPγS functional assays can also be conducted using freshly thawed μ-receptor membranes prepared from a cell line expressing recombinant μ opioid receptor in a CHO-K1 cell background.
(§2) μ GTP Emax (%) is the maximal effect elicited by a compound relative to the effect elicited by DAMGO, a standard μ agonist.
In TABLE 4, activity response of certain Compounds of the Invention to the μ- and κ-opioid receptors was determined as described above for functional assays using HEK-293 or CHO cells.

[2] = biological target: T1, μ-opioid receptor; test: μ-opioid receptor [35S]GTPγS functional assay, U-2 OS cells (Table 5); settings: for Emax: relative to DAMGO; for EC50: μ GTP
Experimental: as §1, §2

[3] = biological target: κ-opioid receptor (Homo sapiens (Human), UniProt P41145); test: κ-opioid receptor [35S]GTPγS functional assay, U-2 OS cells (Table 5); settings: for Emax: relative to U69,593; for EC50: κ GTP
Experimental: κ-Opioid Receptor Functional Assay Procedures: Functional [^35S]GTPγS binding assays were conducted as follows. κ opioid receptor membrane solution was prepared by sequentially adding final concentrations of 0.026 μg/μl κ membrane protein (in-house), 10 μg/mL saponin, 3 μM GDP and 0.20 nM [^35S]GTPγS to binding buffer (100 mM NaCl, 10 mM MgCl2, 20 mM HEPES, pH 7.4) on ice. The prepared membrane solution (190 μl/well) was transferred to 96-shallow well polypropylene plates containing 10 μl of 20× concentrated stock solutions of agonist prepared in DMSO. Plates were incubated for 30 min at a temperature of about 25° C. with shaking. Reactions were terminated by rapid filtration onto 96-well Unifilter GF/B filter plates (Perkin Elmer, Shelton, Conn.) using a 96-well tissue harvester (Packard) and followed by three filtration washes with 200 μl ice-cold binding buffer (10 mM NaH2PO4, 10 mM Na2HPO4, pH 7.4). Filter plates were subsequently dried at 50° C. for 2-3 hours. Fifty μl/well scintillation cocktail (Perkin Elmer, Shelton, Conn.) was added and plates were counted in a Packard Top-Count for 1 min/well.
κ GTP Emax (%) is the maximal effect elicited by a compound relative to the effect elicited by U69,593.
The following TABLE 5 provides results on the activity response of certain Compounds of the Invention at the μ- and κ-opioid receptors determined as described above using U-2 OS cells.

SMILES | Emax [1] | EC50 ([1]; bound given in μM) | Emax [2] | EC50 [2] | Emax [3] | EC50 [3] | EC50 [1] | EC50 ([2]; bound given in μM)
O=C(N[C@H]1CC23CCN(CC4CC4)[C@H](Cc4ccc(O)cc42)[C@]3(O)C1)c1ccccc1 (stereo in doubt) [Compound 79, N-((2S,3aS,4R,9bS)-12-(cyclopropyl-methyl)-3a,8-dihydroxy-1,2,3,3a,4,5-hexahydro-4,9b-(epiminoethano)cyclo-penta[a]naphthalen-2-yl)benzamide] | -1% | > 20 µM | – | – | – | – | – | –
O=C(NCCCN1CCOCC1)[C@@H]1C[C@]23CCN(CC4CC4)[C@H](Cc4ccc(O)cc42)[C@]3(O)C1 [Compound 85, (2R,3aS,4R,9bS)-12-(cyclopropyl-methyl)-3a,8-dihydroxy-N-(3-morpholinopropyl)-1,2,3,3a,4,5-hexahydro-4,9b-(epimino-ethano)cyclopenta[a]naphthalene-2-carboxamide] | -1% | > 20 µM | – | – | – | – | – | –
O=C(NCc1cccnc1)[C@@H]1C[C@]23CCN(CC4CC4)[C@H](Cc4ccc(O)cc42)[C@]3(O)C1 [Compound 89, (2R,3aS,4R,9bS)-12-(cyclopropylmethyl)-3a,8-dihydroxy-N-(pyridin-3-ylmethyl)-1,2,3,3a,4,5-hexahydro-4,9b-(epimino-ethano)cyclopenta[a]naphthalene-2-carboxamide] | 4.5% | > 20 µM | – | – | – | – | – | –
O=C([C@@H]1C[C@]23CCN(CC4CC4)[C@H](Cc4ccc(O)cc42)[C@]3(O)C1)N1CCC(N2CCCC2)CC1 [Compound 88, ((2R,3aS,4R,9bS)-12-(cyclopropylmethyl)-3a,8-dihydroxy-1,2,3,3a,4,5-hexahydro-4,9b-(epiminoethano)cyclopenta-[a]naphthalen-2-yl)(4-(pyrrolidin-1-yl)piperidin-1-yl)methanone] | 0% | > 20 µM | – | – | – | – | – | –
O=C([C@@H]1C[C@]23CCN(CC4CC4)[C@H](Cc4ccc(O)cc42)[C@]3(O)C1)N1CCSCC1 [Compound 87, ((2R,3aS,4R,9bS)-12-(cyclopropylmethyl)-3a,8-dihydroxy-1,2,3,3a,4,5-hexahydro-4,9b-(epiminoethano)cyclopenta-[a]naphthalen-2-yl)(thiomorpholino)-methanone] | 1% | > 20 µM | – | – | – | – | – | –
Oc1ccc2c(c1)C13CCN(CC4CC4)[C@H](C2)[C@]1(O)C[C@H](NCc1ccccc1)C3 (stereo in doubt) [Compound 80, (2R,3aS,4R,9bS)-2-(benzylamino)-12-(cyclopropylmethyl)-2,3,4,5-tetrahydro-4,9b-(epiminoethano)-cyclopenta-[a]naphthalene-3a,8(1H)-diol] | 1% | > 20 µM | – | – | – | – | – | –
O=C(N[C@@H]1CC23CCN(CC4CC4)[C@H](Cc4ccc(O)cc42)[C@]3(O)C1)c1ccccc1 (stereo in doubt) [Compound 82, N-((2R,3aS,4R,9bS)-12-(cyclopropyl-methyl)-3a,8-dihydroxy-1,2,3,3a,4,5-hexahydro-4,9b-(epiminoethano)cyclo-penta[a]naphthalen-2-yl)benzamide] | 1% | > 20 µM | – | – | – | – | – | –
O=C(NCc1ccncc1)[C@@H]1C[C@]23CCN(CC4CC4)[C@H](Cc4ccc(O)cc42)[C@]3(O)C1 [Compound 90, (2R,3aS,4R,9bS)-12-(cyclopropylmethyl)-3a,8-dihydroxy-N-(pyridin-4-ylmethyl)-1,2,3,3a,4,5-hexahydro-4,9b-(epimino-ethano)cyclopenta[a]naphthalene-2-carboxamide] | 8.14 ± 1.3% | > 20 µM | – | – | – | – | – | –
COc1ccc2c(c1)[C@]13CCN(CC4CC4)[C@H](C2)[C@]1(O)C[C@H](C(=O)O)C3 [Compound 14, (2R,3aS,4R,9bS)-12-(cyclopropylmethyl)-3a-hydroxy-8-methoxy-1,2,3,3a,4,5-hexahydro-4,9b-(epiminoethano)-cyclopenta[a]naphthalene-2-carboxylic acid] | – | – | 26.7 ± 2.4% | 0.126 ± 0.0377 µM | 100 ± 2.52% | 147 ± 11.6 nM | – | –
CN(C)C(=O)[C@@H]1C[C@]23CCN(CC4CC4)[C@H](Cc4ccc(O)cc42)[C@]3(O)C1 [Compound 62, (2R,3aS,4R,9bS)-12-(cyclopropylmethyl)-3a,8-dihydroxy-N,N-dimethyl-1,2,3,3a,4,5-hexahydro-4,9b-(epiminoethano)cyclo-penta[a]naphthalene-2-carboxamide] | – | – | 25 ± 0.58% | 0.017 ± 0.00331 µM | 109 ± 3.67% | 23.6 ± 1.09 nM | – | –
O=C([C@H]1C[C@]23CCN(CC4CC4)[C@H](Cc4ccc(O)cc42)[C@]3(O)C1)N1CCS(=O)(=O)CC1 [Compound 94, ((2S,3aS,4R,9bS)-12-(cyclopropylmethyl)-3a,8-dihydroxy-1,2,3,3a,4,5-hexahydro-4,9b-(epiminoethano)cyclopenta-[a]naphthalen-2-yl)(1,1-dioxido-thiomorpholino)methanone] | 10.6 ± 3.41% | > 20 µM | – | – | – | – | – | –
O=C(NCCN1CCOCC1)[C@@H]1C[C@]23CCN(CC4CC4)[C@H](Cc4ccc(O)cc42)[C@]3(O)C1 [Compound 84, (2R,3aS,4R,9bS)-12-(cyclopropyl-methyl)-3a,8-dihydroxy-N-(2-morpholinoethyl)-1,2,3,3a,4,5-hexahydro-4,9b-(epimino-ethano)cyclopenta[a]naphthalene-2-carboxamide] | 19.7 ± 1.67% | – | – | – | – | – | 0.0717 ± 0.0237 µM | –
O=C(NCc1ccc(Cl)cc1Cl)[C@@H]1C[C@]23CCN(CC4CC4)[C@H](Cc4ccc(O)cc42)[C@]3(O)C1 [Compound 44, (2R,3aS,4R,9bS)-12-(cyclopropylmethyl)-N-(2,4-dichlorobenzyl)-3a,8-dihydroxy-1,2,3,3a,4,5-hexahydro-4,9b-(epimino-ethano)cyclopenta[a]naphthalene-2-carboxamide] | – | – | 28.3 ± 1.86% | 0.00375 ± 0.00035 µM | 94.7 ± 7.13% | 0.26 ± 0.033 nM | – | –
CN(CC(=O)O)C(=O)[C@@H]1C[C@]23CCN(CC4CC4)[C@H](Cc4ccc(O)cc42)[C@]3(O)C1 [Compound 66, 2-((2R,3aS,4R,9bS)-12-(cyclopropyl-methyl)-3a,8-dihydroxy-N-methyl-1,2,3,3a,4,5-hexahydro-4,9b-(epiminoethano)cyclopenta[a]naphthalene-2-carboxamido)acetic acid] | – | – | 15.5 ± 1.5% | 0.029 ± 0.00429 µM | 77.3 ± 0.88% | 168 ± 8.15 nM | – | –
COc1ccc2c(c1)[C@]13CCN(CC4CC4)[C@H](C2)[C@]1(O)C[C@H](C(=O)N1CCCC1)C3 [Compound 19, ((2R,3aS,4R,9bS)-12-(cyclopropylmethyl)-3a-hydroxy-8-methoxy-1,2,3,3a,4,5-hexahydro-4,9b-(epiminoethano)cyclo-penta[a]naphthalene-2-yl)(pyrrolidin-1-yl)methanone] | – | – | 29.3 ± 5.93% | 2.96 ± 0.864 µM | 97.7 ± 0.67% | 4720 ± 150 nM | – | –
CC(C)CNC(=O)[C@@H]1C[C@]23CCN(CC4CC4)[C@H](Cc4ccc(O)cc42)[C@]3(O)C1 [Compound 35, (2R,3aS,4R,9bS)-12-(cyclopropylmethyl)-3a,8-dihydroxy-N-isobutyl-1,2,3,3a,4,5-hexahydro-4,9b-(epiminoethano)cyclo-penta[a]naphthalene-2-carboxamide] | – | – | 29.7 ± 0.33% | 0.0197 ± 0.00527 µM | 111 ± 2.96% | 7.75 ± 0.41 nM | – | –
COc1ccc2c(c1)[C@]13CCN(CC4CC4)[C@H](C2)[C@]1(O)C[C@H](N)C3 [Compound 21, (2R,3aS,4R,9bS)-2-amino-12-(cyclopropylmethyl)-8-methoxy-1,2,3,3a,4,5-hexahydro-4,9b-(epimino-ethano)cyclopenta[a]naphthalene-3a-ol] | – | – | 8.67 ± 1.76% | – | 90 ± 2.08% | 5590 ± 738 nM | – | > 20 µM

Source: patent US9656962B2, “Ring-contracted morphinans and the use thereof” (Purdue Pharma L.P., priority 2013, dated 2017)
